Laboratory results: PubChem BioAssay (NCI)
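Assay format: 96-well plates, 48-hour exposure. Here, GI50 denotes the concentration required for 50% inhibition of growth. TGI denotes the concentration required for complete inhibition of growth.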

Assays:
Experiment in all cases: NCI-60 cell line screen, 48 h
CCRF-CEM leukemia = system: CCRF-CEM leukemia
NCI/ADR-RES ovarian = system: NCI/ADR-RES ovarian
NCI-H226 lung = system: NCI-H226 lung
ACHN renal = system: ACHN renal
MOLT-4 leukemia = system: MOLT-4 leukemia
HOP-92 NSCLC = system: HOP-92 NSCLC
HCC-2998 colon = system: HCC-2998 colon
SR leukemia = system: SR leukemia
SNB-19 CNS = system: SNB-19 CNS
MDA-N = system: MDA-N

| Compound | GI50 (CCRF-CEM leukemia) [µM] | TGI (CCRF-CEM leukemia) [µM] | GI50 (NCI/ADR-RES ovarian) [µM] | TGI (NCI/ADR-RES ovarian) [µM] | GI50 (NCI-H226 lung) [µM] | TGI (NCI-H226 lung) [µM] | GI50 (ACHN renal) [µM] | TGI (ACHN renal) [µM] | GI50 (MOLT-4 leukemia) [µM] | TGI (MOLT-4 leukemia) [µM] | GI50 (HOP-92 NSCLC) [µM] | TGI (HOP-92 NSCLC) [µM] | GI50 (HCC-2998 colon) [µM] | TGI (HCC-2998 colon) [µM] | GI50 (SR leukemia) [µM] | TGI (SR leukemia) [µM] | GI50 (SNB-19 CNS) [µM] | TGI (SNB-19 CNS) [µM] | TGI (MDA-N) [µM] |
| --- | --- | --- | --- | --- | --- | --- | --- | --- | --- | --- | --- | --- | --- | --- | --- | --- | --- | --- | --- |
| COc1ccc(-n2cc(-c3ccc(OC)c(OC)c3)nc2SCc2ccccc2)cc1Cl | 0.857 | 31.2 | 42.7 | > 100 | 40.4 | > 100 | 38.9 | > 100 | 21.2 | > 100 | 6.13 | 38.6 | 19.3 | 45.5 | 16 | 51.1 | 32.5 | > 100 |  |
| C[C@]12CC[C@H](O)CC1=CC[C@@H]1[C@@H]2CC[C@]2(C)C(=O)CC[C@@H]12 |  |  |  | > 100 |  | > 100 |  | > 100 |  | > 100 |  |  |  | > 100 |  | > 100 |  | > 100 | > 100 |
| C=CCC1=CC2(OC)C(=O)C(OC)(OC)C1C1C(OC)(OC)C(=O)C(OC)=CC12CC=C (stereo not given) |  | > 100 |  | > 100 |  |  |  | > 100 |  | > 100 |  | > 100 |  | > 100 |  |  |  | > 100 | > 100 |
| FC(F)(F)C1=NC(=NNc2nnc(-c3ccccc3)c(-c3ccccc3)n2)N=C(C(F)(F)F)C1 |  | > 100 |  | > 100 |  | > 100 |  |  |  | > 100 |  | > 87.3 |  | > 88.9 |  |  |  | > 100 |  |
| CCCCOc1ccc(S(=O)(=O)/N=C(\NN)Nc2ccc(Cl)cc2)cc1 |  | 47.6 |  | 76.3 |  | > 100 |  | > 100 |  | > 100 |  | 67.2 |  |  |  | 52.6 |  | > 100 | > 100 |
